Test results from patent US20220411381A1, “PYRIMIDINEDIONE DERIVATIVES” (Bayer Aktiengesellschaft, priority 2019, published 2022).
pIC50: −log10 of the molar value. Read-outs that look alike come from different tables or passages of the source.

Legend:
MDA-MB231 cells = assay: In vitro assay 2: BCAT cellular assay, leucine in medium of MDA-MB231 cells; assay type: cell-based; details: 24 hours incubation, leucine level in medium (LeuDH/diaphorase/resazurin readout), read-out: MDAMB-231 IC50
Method: (§1) In Vitro Assay 2: BCAT Cellular Assay
(§2) Levels of leucine were measured in medium of different tumor cell lines. The enzyme BOAT (Branched chain amino acid transferase) catalyzes the consumption of leucine.
(§3) Cells (U87-MG and MDA-MB231 from ATCC) were grown in Dulbecco's Modified Eagle Medium (DMEM) containing 10% fetal calf serum. They were harvested by trypsin and seeded into 96-well plates. Cells were incubated overnight at 37° C. in an atmosphere containing 5% carbon dioxide. The next day test compounds were added to each cell well. The final concentration of dimethylsulfoxide (DMSO) was 0.1% and DMSO controls were included. The plates were then placed in an incubator for 24 hours.
(§4) Leucine was measured in an enzymatic readout with leucine dehydrogenase (LeuDH) and diaphorase. Medium is deproteinized with perchloric acid. 30 μl of 1 M aqueous perchloric acid was added to each well and the plates were centrifuged.

[1] = target: T1, recombinant human BCAT2 enzyme (Homo sapiens, UniProt O15382); assay: In vitro assay 1b: BCAT2 biochemical assay (coupled LeuDH/NADH fluorescence readout); details: recombinant human BCAT2 […], 32° C., 100 μM leucine, 50 μM α-ketoglutarate, NADH fluorescence over 90 min; read-out: BCAT2 IC50; further: recombinant human BCAT2 0.75 nM
T1 construct: purchased ATGen (South Korea) ATGP1523
T1 sequence (O15382 28-392): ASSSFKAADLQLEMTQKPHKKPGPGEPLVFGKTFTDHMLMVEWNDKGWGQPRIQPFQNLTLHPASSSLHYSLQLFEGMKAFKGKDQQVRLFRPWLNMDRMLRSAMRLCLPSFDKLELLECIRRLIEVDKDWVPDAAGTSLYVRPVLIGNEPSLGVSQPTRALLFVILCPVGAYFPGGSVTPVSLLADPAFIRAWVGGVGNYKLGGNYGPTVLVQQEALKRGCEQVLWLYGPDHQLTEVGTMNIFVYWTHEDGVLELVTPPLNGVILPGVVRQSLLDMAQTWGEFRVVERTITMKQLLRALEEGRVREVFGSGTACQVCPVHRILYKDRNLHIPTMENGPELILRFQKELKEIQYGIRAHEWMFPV
Procedure, shortened: (§5)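 Transamination of leucine to KIC coupled to LeuDH-driven NADH-dependent reduction of KIC, NADH consumption read by fluorescence; 32° C in 50 mM HEPES pH 8.0, 50 mM ammonium sulfate, 1 mM EDTA, 2 mM DTT, 0.01% BSA, 0.005% Brij 35, 0.5 μM PLP.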

[2] = target: T2, recombinant human BCAT1 enzyme (Homo sapiens, UniProt P54687); assay: In vitro assay 1a: BCAT1 biochemical assay (coupled LeuDH/NADH fluorescence readout); details: recombinant human BCAT1 […], 32° C., 100 μM leucine, 50 μM α-ketoglutarate, NADH fluorescence over 90 min; read-out: BCAT1 IC50
T2 construct: purchased ATGen (South Korea) ATGP1479
T2 sequence (P54687 1-386): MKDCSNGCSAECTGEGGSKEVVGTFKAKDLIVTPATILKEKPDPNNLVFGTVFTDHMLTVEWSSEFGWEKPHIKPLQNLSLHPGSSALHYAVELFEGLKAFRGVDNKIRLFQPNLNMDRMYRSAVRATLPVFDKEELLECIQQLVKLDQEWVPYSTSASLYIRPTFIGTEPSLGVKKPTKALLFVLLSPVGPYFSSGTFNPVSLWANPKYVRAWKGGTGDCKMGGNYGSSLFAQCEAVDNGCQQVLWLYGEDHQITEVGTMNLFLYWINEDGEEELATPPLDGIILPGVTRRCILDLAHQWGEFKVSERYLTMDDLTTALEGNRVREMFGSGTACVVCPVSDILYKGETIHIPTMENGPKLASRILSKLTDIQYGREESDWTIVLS
Procedure, shortened: as §5

U87-MG cells = assay: In vitro assay 2: BCAT cellular assay, leucine in medium of U87-MG cells; assay type: cell-based; details: 24 hours incubation, leucine level in medium (LeuDH/diaphorase/resazurin readout)
Method: as §1, §2, §3, §4

SMILES	pIC50 (MDA-MB231 cells)	pIC50 (MDA-MB231 cells; Homo sapiens, MDA-MB-231, 24 h)	pIC50 [1]	pIC50 [2]	pIC50 (U87-MG cells; Homo sapiens, U-87 MG, 24 h)	pIC50 (U87-MG cells)
Cc1cc(C#N)c(Oc2ccccc2Cl)cc1-n1c(=O)cc(C(F)(F)F)[nH]c1=O (racemic) [Example 10, 2-(2-Chlorophenoxy)-4-[2,6-dioxo-4-(trifluoromethyl)-3,6-dihydropyrimidin-1 (2H)-yl]-5-methylbenzonitrile (rac)]	< 4.52	4.52	5.22	6.41	4.89	–
Cc1ccccc1Oc1cc(-n2c(=O)cc(C(F)(F)Cl)[nH]c2=O)c(F)cc1C#N [Example 40, 4-{4-[Chloro(difluoro)methyl]-2,6-dioxo-3,6-dihydropyrimidin-1(2H)-yl}-5-fluoro-2-(2-methylphenoxy)benzonitrile]	–	4.92	5.66	6.35	5.33	–
COc1cc(C#N)c(Oc2ccccc2Cl)cc1-n1c(=O)cc(C(F)(F)F)[nH]c1=O (racemic) [Example 15, 2-(2-Chlorophenoxy)-4-[2,6-dioxo-4-(trifluoromethyl)-3,6-dihydropyrimidin-1(2H)-yl]-5-methoxybenzonitrile (rac)]	–	4.77	6.08	6.83	4.70	–
N#Cc1ccc(-n2c(=O)cc(C(F)(F)F)[nH]c2=O)cc1Oc1ccccc1Cl [Example 46, 2-(2-Chlorophenoxy)-4-[2,6-dioxo-4-(trifluoromethyl)-3,6-dihydropyrimidin-1 (2H)-yl]benzonitrile]	–	< 4.52	5.22	6.17	4.60	–

Results, then the molecule that gave them:

pIC50 (MDA-MB231 cells)	pIC50 (MDA-MB231 cells; Homo sapiens, MDA-MB-231, 24 h)	pIC50 [1]	pIC50 [2]	pIC50 (U87-MG cells; Homo sapiens, U-87 MG, 24 h)	pIC50 (U87-MG cells)	SMILES
4.80	–	6.11	–	4.78	–	COc1cc(C#N)c(Oc2ccccc2C)cc1-n1c(=O)cc(S(=O)(=O)c2ccccc2)[nH]c1=O (single isomer, unassigned) [Example 77, 4-[4-(Benzenesulfonyl)-2,6-dioxo-3,6-dihydropyrimidin-1(2H)-yl]-5-methoxy-2-(2-methylphenoxy)benzonitrile (atrop 1)]
–	< 4.52	5.26	6.50	4.95	–	Cc1ccccc1Oc1cc(-n2c(=O)cc(Br)[nH]c2=O)c(F)cc1C#N [Example 3, 4-(4-Bromo-2,6-dioxo-3,6-dihydropyrimidin-1(2H)-yl)-5-fluoro-2-(2-methylphenoxy)benzonitrile]
5.42	–	6.85	–	–	4.90	COc1cc(C#N)c(Oc2ccccc2C)cc1-n1c(=O)cc(S(=O)(=O)c2ccccc2)[nH]c1=O (single isomer, unassigned) [Example 78, 4-[4-(Benzenesulfonyl)-2,6-dioxo-3,6-dihydropyrimidin-1(2H)-yl]-5-methoxy-2-(2-methylphenoxy)benzonitrile (atrop 2)]
–	4.97	5.60	6.82	5.27	–	COc1cc(C#N)c(Oc2ccccc2Cl)cc1-n1c(=O)cc(C(F)(F)F)[nH]c1=O (single isomer, unassigned) [Example 16, 2-(2-Chlorophenoxy)-4-[2,6-dioxo-4-(trifluoromethyl)-3,6-dihydropyrimidin-1(2H)-yl]-5-methoxybenzonitrile (atrop 1)]
